Measured values: article PMC12396409, “Screening and hit evaluation of a microbial metabolite library against the pathogenic Plasmodium falciparum and Toxoplasma gondii parasites” (International Journal for Parasitology: Drugs and Drug …, 2025)
Where two headings read alike, the source gives them in different places. Where a SMILES comes first, the peptide text is derived from it. [ ]: non-standard residue; d: D form. Phe(ol) = N[C@H](CO)Cc1ccccc1; Aib = CC(C)(N)C(=O)O

Assays:
[1] = tested on: P. falciparum 3D7 parasites; experiment: P. falciparum growth inhibition assay, 2-cycle (120 h treatment), delayed-death screen and dose-response; type: cell-based, Plasmodium falciparum
[2] = tested on: T. gondii RH strain (RH-Tub-eYFP) tachyzoites; experiment: microbe, parasite or virus in culture; type: cell-based, Toxoplasma gondii; conditions: 72 h; for percent parasite growth at 2 µg/mL: Toxoplasma gondii
[3] = tested on: P. falciparum 3D7 parasites; experiment: P. falciparum growth inhibition assay, 1-cycle (72 h treatment), SYBR DNA staining (library screen at 2 μg/mL and dose-response); type: cell-based, Plasmodium falciparum
[4] = library screen at 2 μg/mL, 120 h, % growth, replicate 1
[5] = library screen at 2 μg/mL, 120 h, % growth, replicate 2
[6] = library screen at 2 μg/mL, % growth, replicate 1
[7] = library screen at 2 μg/mL, % growth, replicate 2
[8] = library screen at 2 μg/mL, 72 h, % growth, replicate 1
[9] = library screen at 2 μg/mL, 72 h, % growth, replicate 2
[10] = P. falciparum, 120 h, parasite screen 2 μg/mL, % growth, replicate 1
[11] = P. falciparum, 120 h, parasite screen 2 μg/mL, % growth, replicate 2
[12] = T. gondii, parasite screen 2 μg/mL, % growth, replicate 1
[13] = T. gondii, parasite screen 2 μg/mL, % growth, replicate 2
[14] = P. falciparum, 72 h, parasite screen 2 μg/mL, % growth, replicate 1
[15] = P. falciparum, 72 h, parasite screen 2 μg/mL, % growth, replicate 2

## CO[C@H]1C[C@H](O[C@H]2[C@H](C)O[C@@H](O[C@@H]3/C(C)=C/C[C@@H]4C[C@@H](C[C@]5(C=C[C@H](C)[C@@H](C(C)C)O5)O4)OC(=O)[C@@H]4C=C(C)[C@@H](O)[C@H]5OC/C(=C\C=C\[C@@H]3C)[C@]54O)C[C@@H]2OC)O[C@@H](C)[C@@H]1O [Avermectin B1b]
[1]; [4]
  Pf_120h_%Growth_Rep1: 7.97%
[1]; [5]
  Pf_120h_%Growth_Rep2: -7.80%
[2]; [6]
  Tg_72h_%Growth_Rep1: 74.43%
[2]; [7]
  Tg_72h_%Growth_Rep2: 75.78%
[3]; [8]
  Pf_72h_%Growth_Rep1: 8.18%
[3]; [9]
  Pf_72h_%Growth_Rep2: 3.73%

## Cc1cccc(O)c1C(=O)O [BIA-M1655]
[1]; P. falciparum 3D7, 120 h, parasite screen at 2 μg/mL, % growth, replicate 1
  Pf_120h_%Growth_Rep1: 96.92%
[1]; P. falciparum 3D7, 120 h, parasite screen at 2 μg/mL, % growth, replicate 2
  Pf_120h_%Growth_Rep2: 97.37%
[2]; T. gondii, parasite screen at 2 μg/mL, % growth, replicate 1
  Tg_72h_%Growth_Rep1: 91.77%
[2]; T. gondii, parasite screen at 2 μg/mL, % growth, replicate 2
  Tg_72h_%Growth_Rep2: 83.98%
[3]; P. falciparum 3D7, 72 h, parasite screen at 2 μg/mL, % growth, replicate 1
  Pf_72h_%Growth_Rep1: 90.28%
[3]; P. falciparum 3D7, 72 h, parasite screen at 2 μg/mL, % growth, replicate 2
  Pf_72h_%Growth_Rep2: 64.98%

## CCO[C@@H]1[C@@H](OC)[C@H](C)O[C@@H](O[C@@H]2C[C@H]3CC[C@@H]4[C@@H](C=C5C(=O)[C@H](C)[C@@H](O[C@H]6CC[C@H](N(C)C)[C@@H](C)O6)CCC[C@H](CC)OC(=O)C[C@H]54)[C@@H]3C2)[C@@H]1OC [spinosyn J, 3'-Ethoxy-5,6-dihydro-]
[1]; [10]
  Pf_120h_%Growth_Rep1: 7.21%
[1]; [11]
  Pf_120h_%Growth_Rep2: 9.72%
[2]; [12]
  Tg_72h_%Growth_Rep1: 73.90%
[2]; [13]
  Tg_72h_%Growth_Rep2: 86.54%
[3]; [14]
  Pf_72h_%Growth_Rep1: 5.68%
[3]; [15]
  Pf_72h_%Growth_Rep2: 5.35%

## C/C=C/C=C/[C@H]1Cc2cc(O)cc(O)c2O1 [Asperfuran]
[1]; [4]
  Pf_120h_%Growth_Rep1: 70.89%
[1]; [5]
  Pf_120h_%Growth_Rep2: 94.19%
[2]; [6]
  Tg_72h_%Growth_Rep1: 65.57%
[2]; [7]
  Tg_72h_%Growth_Rep2: 59.68%
[3]; [8]
  Pf_72h_%Growth_Rep1: 81.82%
[3]; [9]
  Pf_72h_%Growth_Rep2: 86.77%

## C/C=C\C=C\[C@@H]1O[C@](O)([C@H](CC)C(=O)NC/C=C/C=C(\C)[C@@H](OC)[C@@H](C)[C@H]2C[C@@H](O)[C@@H](/C=C/C=C/C=C/C(=O)O)O2)[C@H](O)[C@H](O)C1(C)C [A 83016F]
[1]; [4]
  Pf_120h_%Growth_Rep1: 83.40%
[1]; [5]
  Pf_120h_%Growth_Rep2: 76.05%
[2]; [6]
  Tg_72h_%Growth_Rep1: 147.54%
[2]; [7]
  Tg_72h_%Growth_Rep2: 91.91%
[3]; [8]
  Pf_72h_%Growth_Rep1: 83.31%
[3]; [9]
  Pf_72h_%Growth_Rep2: 85.46%

## CCC(=O)N[C@H](COC(C)=O)[C@H](O)c1ccc([N+](=O)[O-])cc1 [Corynecin V]
[1]; P. falciparum, 120 h, screen at 2 μg/mL, replicate 1
  Pf_120h_%Growth_Rep1: 81.24%
[1]; P. falciparum, 120 h, screen at 2 μg/mL, replicate 2
  Pf_120h_%Growth_Rep2: 97.66%
[2]; T. gondii, screen at 2 μg/mL, replicate 1
  Tg_72h_%Growth_Rep1: 157.61%
[2]; T. gondii, screen at 2 μg/mL, replicate 2
  Tg_72h_%Growth_Rep2: 102.11%
[3]; P. falciparum, 72 h, screen at 2 μg/mL, replicate 1
  Pf_72h_%Growth_Rep1: 87.31%
[3]; P. falciparum, 72 h, screen at 2 μg/mL, replicate 2
  Pf_72h_%Growth_Rep2: 90.66%

## CC(=O)NC(C)(C)C(=O)N1CCC[C@H]1C(=O)NC(C)(C)C(=O)N[C@@H](C)C(=O)NC(C)(C)C(=O)N[C@@H](C)C(=O)N[C@@H](CCC(N)=O)C(=O)NC(C)(C)C(=O)N[C@H](C(=O)NC(C)(C)C(=O)NCC(=O)N[C@@H](CC(C)C)C(=O)NC(C)(C)C(=O)N1CCC[C@H]1C(=O)N[C@H](C(=O)NC(C)(C)C(=O)NC(C)(C)C(=O)N[C@@H](CCC(N)=O)C(=O)N[C@@H](CCC(N)=O)C(=O)N[C@H](CO)Cc1ccccc1)C(C)C)C(C)C [Alamethicin F50] (Ac-[Aib]P[Aib]A[Aib]AQ[Aib]V[Aib]GL[Aib]PV[Aib][Aib]QQ[Phe(ol)])
[1]; P. falciparum, growth at 72 h / growth at 120 h, 2 μg/mL
  3) Fold change (72 h/120 h): 6.4
[1]; Plasmodium falciparum, 3D7; P. falciparum, 2 μg/mL, 120 h; read-out: 2) Growth (%) at 120 h
  activity at 2 µg/mL: 3.45%
[1]; Plasmodium falciparum, 3D7, library screen at 2 μg/mL, 120 h, % growth, replicate 1, read-out: Pf_120h_%Growth_Rep1
  activity at 2 µg/mL: 8.66%
[1]; Plasmodium falciparum, 3D7, library screen at 2 μg/mL, 120 h, % growth, replicate 2, read-out: Pf_120h_%Growth_Rep2
  activity at 2 µg/mL: -1.76%
[2]; library screen at 2 μg/mL, % growth, replicate 1, read-out: Tg_72h_%Growth_Rep1
  percent parasite growth at 2 µg/mL: 92.3%
[2]; library screen at 2 μg/mL, % growth, replicate 2, read-out: Tg_72h_%Growth_Rep2
  percent parasite growth at 2 µg/mL: 87.6%
[3]; Plasmodium falciparum, 3D7; P. falciparum, 2 μg/mL, 72 h; read-out: 1) Growth (%) at 72 h
  activity at 2 µg/mL: 22%
[3]; Plasmodium falciparum, 3D7, library screen at 2 μg/mL, 72 h, % growth, replicate 1, read-out: Pf_72h_%Growth_Rep1
  activity at 2 µg/mL: 21.9%
[3]; Plasmodium falciparum, 3D7, library screen at 2 μg/mL, 72 h, % growth, replicate 2, read-out: Pf_72h_%Growth_Rep2
  activity at 2 µg/mL: 22.1%

## CCCCC[C@@H]1CCCCC[C@@H](O)C[C@H](O)[C@H](O)/C=C/C(=O)O1 [Sch 725674]
[1]; [10]
  Pf_120h_%Growth_Rep1: 118.17%
[1]; [11]
  Pf_120h_%Growth_Rep2: 96.28%
[2]; [12]
  Tg_72h_%Growth_Rep1: 110.92%
[2]; [13]
  Tg_72h_%Growth_Rep2: 69.04%
[3]; [14]
  Pf_72h_%Growth_Rep1: 94.68%
[3]; [15]
  Pf_72h_%Growth_Rep2: 136.05%
